Patent publication US11613547B2 (priority 2019, dated 2023)
Several values for one entry are separate records, joined by “and”; a condition that tells them apart may be missing. Equal values may be shown once. Read-outs that look alike come from different tables or passages of the source.

How the values were obtained:
mMOR [1] = target: T1, mMOR (Mus musculus, UniProt P42866); experiment: Radioligand competition binding ([125I]IBNtxA), CHO membranes, mMOR; details: vs 125IBNtxA (0.1 nM), mean ± SEM
T1 construct: expressed in transfected cells

mKOR [2] = target: T2, mKOR (Mus musculus, UniProt P33534); experiment: Radioligand competition binding ([125I]IBNtxA), CHO membranes, mKOR; details: vs 125IBNtxA (0.1 nM), mean ± SEM
T2 construct: expressed in transfected cells

mDOR [3] = target: T3, mDOR (Mus musculus, UniProt P32300); experiment: Radioligand competition binding ([125I]IBNtxA), CHO membranes, mDOR; details: vs 125IBNtxA (0.1 nM), CHO membranes, mean ± SEM
T3 construct: expressed in transfected cells

mMOR [4] = target: T1, mMOR; experiment: [35S]GTPγS functional assay, mMOR; type: biochemical
mKOR [5] = target: T2, mKOR; experiment: [35S]GTPγS functional assay, mKOR; type: biochemical
mDOR [6] = target: T3, mDOR; experiment: [35S]GTPγS functional assay, mDOR; type: biochemical
hMOR [7] = target: T4, hMOR (Homo sapiens, UniProt P35372); experiment: cell-based; type: cell-based
T4 construct: expressed in transfected cells; host or cells: HEK 293T (ATCC CRL-11268), transient

hMOR [8] = target: T4, hMOR; experiment: Tango β-arrestin recruitment assay, hMOR; type: cell-based
hKOR [9] = target: T5, hKOR (Homo sapiens, UniProt P41145); experiment: cAMP inhibition assay (GloSensor, HEK 293T), hKOR; type: cell-based; details: for Bias factor toward G protein, hKOR: cAMP inhibition vs Tango, against U50,488H as control
T5 construct: expressed in transfected cells; host or cells: HEK 293T (ATCC CRL-11268), transient

hKOR [10] = target: T5, hKOR; experiment: Tango β-arrestin recruitment assay, hKOR; type: cell-based
[11] = target: T6, mouse mu opioid receptor (mMOR) (Mus musculus, UniProt P42866); experiment: cell-based; type: cell-based
T6 construct: expressed in transfected cells; host or cells: HEK-293T, transient (PEI), with BRET sensor cDNAs

[12] = target: T6, mouse mu opioid receptor (mMOR); experiment: cell-based; type: cell-based; remark: listed apart in the source
[13] = target: T7, rat kappa opioid receptor (rKOR) (Rattus norvegicus, UniProt P34975); experiment: BRET assay, G-protein activation, rKOR; type: cell-based; details: for Bias factor toward G-protein, rKOR: BRET assays, against U50,488H as control; for EC50: read-out: Gi EC50 rKOR
T7 construct: expressed in transfected cells; host or cells: HEK-293T, transient (PEI), with BRET sensor cDNAs

[14] = target: T7, rat kappa opioid receptor (rKOR); experiment: BRET assay, arrestin recruitment, rKOR; type: cell-based
[15] = target: T8, mouse delta opioid receptor (mDOR) (Mus musculus, UniProt P32300); experiment: BRET assay, G-protein activation, mDOR; type: cell-based
T8 construct: expressed in transfected cells; host or cells: HEK-293T, transient (PEI), with BRET sensor cDNAs

[16] = target: T8, mouse delta opioid receptor (mDOR); experiment: BRET assay, arrestin recruitment, mDOR; type: cell-based
hDOR [17] = target: T9, hDOR (Homo sapiens, UniProt P41143); experiment: cAMP inhibition assay, hDOR; type: cell-based; design: expressed in transfected cells
hDOR [18] = target: T9, hDOR; experiment: Tango β-arrestin recruitment assay, hDOR; type: cell-based; design: expressed in transfected cells; host or cells: HTLA cells expressing TEV fused-beta-Arrestin2
Y312W-hKOR [19] = target: T10, Y312W-hKOR (Homo sapiens, UniProt P41145, Y312W); experiment: Tango-arrestin recruitment assay, Y312W-hKOR mutant; type: cell-based; design: expressed in transfected cells
Y312W-hKOR [20] = target: T10, Y312W-hKOR; experiment: cAMP inhibition assay, Y312W-hKOR mutant; type: cell-based; design: expressed in transfected cells; host or cells: HEK 293T (inferred from the general cAMP method)
[21] = BRET, normalized to Emax of U50,488H
[22] = mDOR, BRET, normalized to DPDPE
[23] = read-out: Arrestin recruitment Emax % ± SEM

SMILES: O=C(N[C@@H]1CC[C@@]2(O)[C@H]3Cc4ccc(O)c5c4[C@@]2(CCN3CC2CC2)[C@H]1O5)c1cccc(I)c1 [IBNtxA, reference compound]
- Ki (mMOR [1]): 0.11 ± 0.02 nM
- Ki (mKOR [2]): 0.03 ± 0.001 nM
- Ki (mDOR [3]): 0.24 ± 0.05 nM
- EC50 (mMOR [4]; [35S]GTPγS, nM ± SEM): 0.49 ± 0.12 nM
- mMOR Emax (mMOR [4]; [35S]GTPγS, relative to DAMGO): 101 ± 3%
- EC50 (mKOR [5]; [35S]GTPγS, nM ± SEM): 0.22 ± 0.02 nM
- mKOR Emax (mKOR [5]; [35S]GTPγS, relative to U50,488H): 102 ± 4%
- EC50 (mDOR [6]; [35S]GTPγS, nM ± SEM): 4.08 ± 0.67 nM
- mDOR Emax (mDOR [6]; [35S]GTPγS, relative to DPDPE): 95 ± 2%
- Bias factor toward G protein, hMOR (hMOR [7]): 23
- Gi Emax hMOR (hMOR [7]): 95±2
- Gi pEC50±SEM hMOR (hMOR [7]): 10.2±0.006
- EC50 (hMOR [7]; read-out: Gi EC50 hMOR): 0.07 nM
- Arrestin pEC50±SEM hMOR (hMOR [8]; Tango): 8.2±0.002
- EC50 (hMOR [8]; Tango): 5.86 nM
- Arrestin Emax hMOR (hMOR [8]; Tango, normalized to Emax of DAMGO): 29±0.02
- Bias factor toward G protein, hKOR (hKOR [9]): 0.2
- Gi Emax hKOR (hKOR [9]; cAMP inhibition, normalized to Emax of U50,488H): 106±0.7
- Arrestin pEC50±SEM hKOR (hKOR [10]; Tango, WT-hKOR): 10.9±0.07
- EC50 (hKOR [10]; Tango, WT-hKOR): 0.013 nM
- Arrestin Emax hKOR (hKOR [10]; Tango, normalized to Emax of U50,488H): 109±1.8
- Bias factor toward G-protein, mMOR [11]: 404
- Gi Emax mMOR [11]: 59±2.2
- Gi pEC50±SEM mMOR [11]: 10.3±0.02
- EC50 ([11]; read-out: Gi EC50 mMOR): 0.054 nM
- Arrestin Emax mMOR [12]: 75±13.9
- Arrestin pEC50±SEM mMOR [12]: 4.9±0.3
- EC50 ([12]; read-out: Arrestin EC50 mMOR): 11300 nM
- Gi pEC50±SEM rKOR ([13]; BRET): 10.2±0.1
- Bias factor toward G-protein, rKOR [13]: 0.6
- Gi Emax rKOR [13, 21]: 101±2.3
- EC50 ([13]; BRET): 0.064 nM
- Arrestin pEC50±SEM rKOR ([14]; BRET): 8.9±0.02
- EC50 ([14]; BRET): 1.23 nM
- Arrestin Emax rKOR [14, 21]: 133±7.3
- EC50 ([15]; mDOR, BRET): 0.48 nM
- G-Protein activation pEC50 ± SEM ([15]; mDOR, BRET): 9.3 ± 0.10
- G-Protein activation Emax % ± SEM [15, 22]: 108 ± 3.7%
- Arrestin recruitment pEC50 ± SEM ([16]; mDOR, BRET): 7.5 ± 0.2
- EC50 ([16]; mDOR, BRET): 26.6 nM
- Arrestin recruitment Emax % ± SEM [16, 22]: 88 ± 6.8%
- EC50 (hDOR [17]; hDOR): 0.43 nM
- cAMP inhibition pEC50 ± SEM (hDOR [17]; hDOR): 9.3 ± 0.03
- cAMP inhibition Emax % ± SEM (hDOR [17]; hDOR, normalized to DPDPE or DADLE): 106 ± 1%
- Arrestin recruitment pEC50 ± SEM (hDOR [18]; hDOR, Tango): 7.8 ± 0.06
- EC50 (hDOR [18]; hDOR, Tango): 14.1 nM
- Arrestin recruitment Emax % ± SEM (hDOR [18]; hDOR, Tango, normalized to DPDPE or DADLE): 224 ± 5%

SMILES: O=C(N[C@@H]1CCC2C3Cc4ccc(O)c5c4C2(CCN3CC2CC2)C1O5)c1cccc(I)c1 (stereo partly drawn) [MP1202, N-((7R,1265)-3-(Cyclopropylmethyl)-9-hydroxy-2,3,4,4a,5,6,7,7a-octahydro-1H-4,12-methanobenzofuro[3,2-e]isoquinolin-7-yl)-3-iodobenzamide]
- Emax (mMOR [4]): 68 ± 1%
- Emax (mKOR [5]): 94 ± 5%
- Emax (mDOR [6]): 71 ± 2%
- Bias factor toward G protein, hMOR (hMOR [7]): 31
- EC50 (hMOR [7]): 0.077 nM
- Emax (hMOR [7]; HEK-293T, read-out: Gi Emax hMOR): 92 ± 1.4%
- Emax (hMOR [8]): 53 ± 2%
- EC50 (hMOR [8]; Tango): 26.8 nM
- Emax (hKOR [9]; HEK-293T, read-out: Gi Emax hKOR): 110 ± 1%
- Bias factor toward G protein, hKOR (hKOR [9]): 0.6
- EC50 (hKOR [9]; cAMP inhibition, read-out: Gi EC50 hKOR): 0.0016 nM
- Emax (hKOR [10]): 101 ± 1%
- EC50 (hKOR [10]; Tango, WT-hKOR): 0.0457 nM
- Bias factor toward G-protein, mMOR [11]: 58
- Emax ([11]; read-out: Gi Emax mMOR): 61 ± 1.5%
- Emax ([12]; read-out: Arrestin Emax mMOR): 53 ± 1.6%
- Bias factor toward G-protein, rKOR [13]: 0.39 and 0.4
- EC50 ([13]; BRET): 0.134 nM
- Emax ([13]; read-out: Gi Emax rKOR): 104 ± 2%
- Emax [14]: 77 ± 5%
- EC50 ([14]; BRET): 1.44 nM
- Emax ([15]; read-out: G-Protein activation Emax % ± SEM): 103 ± 4.6%
- EC50 ([16]; mDOR, BRET): 525 nM
- Emax [16, 23]: 26 ± 2.3%
- EC50 (hDOR [17]; hDOR): 8.18 nM
- Emax (hDOR [17]; read-out: cAMP inhibition Emax % ± SEM): 99 ± 2.2%
- Emax (Y312W-hKOR [19]): 55 ± 2.6%
- EC50 (Y312W-hKOR [19]; Tango): 3.4 nM
- arrestin recruitment at Y312W-hKOR (Y312W-hKOR [19]; Tango, compared with wild-type KOR): reduced arrestin recruitment
- EC50 (hDOR [18]; hDOR, Tango): 18.1 nM
- Emax (hDOR [18]; [23]): 26 ± 3.1%
- Bias factor toward G-protein, Y312W-hKOR (Y312W-hKOR [20]; cAMP inhibition vs Tango, against U50,488H as control): 33 and 34
- EC50 (Y312W-hKOR [20]; cAMP inhibition, read-out: Gi pEC50±SEM Y312W-hKOR (converted)): 0.0204 nM
- Emax (Y312W-hKOR [20]; read-out: Gi Emax Y312W-hKOR): 101 ± 1.5%
